Earlier results as cited in patent US8062679B2, “Composition for maintaining androgen and androgen-like uptake potential by cells” (Northern Innovations and Formulations Corp., priority 2007, dated 2011).
Where two headings read alike, the source gives them in different places.

Experiments:
[1] = tested on: mitochondrial permeability transition
[2] = three weeks, equivalent of 2 g elemental carnitine per day; cross-over, placebo controlled
aromatase = target: T1, aromatase (Homo sapiens, UniProt P11511)
T1 sequence (P11511 1-503): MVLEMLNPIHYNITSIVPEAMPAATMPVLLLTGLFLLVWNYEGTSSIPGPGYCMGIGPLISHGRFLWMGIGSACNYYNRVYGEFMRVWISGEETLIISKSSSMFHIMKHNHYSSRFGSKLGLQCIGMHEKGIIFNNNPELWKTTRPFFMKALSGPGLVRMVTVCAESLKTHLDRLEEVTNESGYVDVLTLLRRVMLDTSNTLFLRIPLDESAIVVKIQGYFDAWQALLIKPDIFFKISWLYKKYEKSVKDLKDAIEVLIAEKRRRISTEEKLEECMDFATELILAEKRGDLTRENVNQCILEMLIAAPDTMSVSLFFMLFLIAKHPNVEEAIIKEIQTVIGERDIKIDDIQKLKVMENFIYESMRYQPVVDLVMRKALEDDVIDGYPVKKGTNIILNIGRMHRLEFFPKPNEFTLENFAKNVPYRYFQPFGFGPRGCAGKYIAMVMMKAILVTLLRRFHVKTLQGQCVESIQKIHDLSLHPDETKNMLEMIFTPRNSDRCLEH

[3] = prolonged L-carnitine administration
[4] = human blood
[5] = fights ROS under low oxygen tension
GH [6] = tested on: GH
GH [7] = conditions: oral, both 0.5 mg and 5.0 mg
GH [8] = tested on: GH; remark: listed apart in the source
lutenizing hormone (LH) = conditions: after exercise, animals

With `CCCCCCCCCCC1=C(C)C(=O)C(OC)=C(OC)C1=O` [Decylubiquinone] as the compound, how does the “redox-dependent mitochondrial permeability transition” value [1] read?
Its value is “effectively block”.

For `C[N+](C)(C)C[C@H](O)CC(=O)[O-].O=C(O)C(O)C(O)C(=O)O` [LCLT, L-carnitine L-tartrate], which “muscle damage produced by an acute bout of high-intensity resistance exercise” value [2] is on record?
Its value is “reduce muscle damage”.

For conjugated linoleic acids, which aromatase activity (aromatase) is on record?
Its aromatase activity is “efficient suppressors”.

For `C[N+](C)(C)C[C@H](O)CC(=O)[O-]` [L-carnitine], which “pain and damage from eccentric muscular effort” value [3] is on record?
Its value is “protective effect”.

For `COC1=C(OC)C(=O)C(C/C=C(\C)CC/C=C(\C)CC/C=C(\C)CC/C=C(\C)CC/C=C(\C)CC/C=C(\C)CC/C=C(\C)CC/C=C(\C)CC/C=C(\C)CCC=C(C)C)=C(C)C1=O` [CoQ10, ubidecarenone], which antioxidant activity [4] is on record?
The antioxidant activity was “potent antioxidant”.

And the exercise duration (individuals suffering from angina, vs untreated groups)?
The exercise duration was “able to exercise for longer periods”.

What about the myocardial function (patients with disease conditions involving energy production deficits) of the same compound?
Its myocardial function is “improved”.

With `COC1=C(OC)C(=O)C(CCCCCCCCCCO)=C(C)C1=O` [Idebenone] as the compound, how does the antioxidant activity [5] read?
Its antioxidant activity is “potent antioxidant”.

Which “GH, area under the curve” value (GH [6]; 5.0 mg orally 60 minutes prior to bicycle exercise at 70% VO2max, vs placebo) does the source give for `COc1ccc2[nH]cc(CCNC(C)=O)c2c1` [melatonin, N-Acetyl-5-methoxytryptamine] here?
Its value is “significant increases”.

What about the “time of GH peak following exercise” value (GH [6]; 5.0 mg orally 60 minutes prior to exercise) of the same compound?
The value was 30 min.

What about the “plasma GH concentrations” value (GH [7]) of the same compound?
The value was “significant increase”.

What about the “time of peak plasma GH” value (GH [7]) of the same compound?
The value was 60 min.

And the “serum free GH following a single bout of heavy-resistance exercise” value (GH [8]; 0.5 and 5.0 mg, weight-trained young males)?
The value was “significantly more effective than placebo”.

And the “serum IGFBP-3” value (GH [8]; pre- and post-exercise periods)?
Its value is “notable increases”.

Which aromatase activity (aromatase) does the source give for `CC/C=C\C/C=C\C/C=C\CCCCCCCC(=O)O` [linolenic] here?
The aromatase activity was “efficient suppressors”.

For `CC(C)=CCC[C@](C)(O[C@@H]1O[C@H](CO[C@@H]2O[C@H](CO)[C@@H](O)[C@H](O)[C@H]2O)[C@@H](O)[C@H](O)[C@H]1O)[C@H]1CC[C@]2(C)[C@@H]1[C@H](O)C[C@@H]1[C@@]3(C)CC[C@H](O[C@@H]4O[C@H](CO)[C@@H](O)[C@H](O)[C@H]4O[C@@H]4O[C@H](CO)[C@@H](O)[C@H](O)[C@H]4O)C(C)(C)[C@@H]3CC[C@]12C` [Ginsenoside Rb1], which “secretion of lutenizing hormone (LH)” value (lutenizing hormone (LH)) is on record?
Its value is “stimulate the secretion”.

Which aromatase activity (aromatase) does the source give for `CCCCC/C=C\C/C=C\CCCCCCCC(=O)O` [linoleic] here?
Its aromatase activity is “efficient suppressors”.
